Data reported in paper PMC10992699, “Comparative structure activity and target exploration of 1,2-diphenylethynes in Haemonchus contortus and Caenorhabditis elegans” (International Journal for Parasitology: Drugs and Drug …, 2024).

Columns and labels:
H. contortus xL3s = experiment: H. contortus xL3 motility dose-response assay; type: cell-based, Haemonchus contortus
Experimental: Immediately prior to use in assays, H. contortus L3s were exsheathed via exposure to 0.15 % (v/v) sodium hypochlorite for 20 min at 38 °C ([Preston et al., 2015]), achieving an exsheathment rate of 90 %. The larvae were then immediately washed five times with 50 mL of sterile physiological saline (pH 7.0) by centrifugation at 2000×g (5 min) and resuspended (at a concentration of 300 xL3s per 50 μL) in sterile (autoclaved) lysogeny broth (LB; cf. [Bertani, 1951]; [Taki et al., 2021b]), supplemented with final concentrations of 100 IU/mL of penicillin, 100 μg/mL of streptomycin and 0.25 μg/mL of amphotericin B (Fungizone®, cat. No. 15240-062, Gibco, Thermo Fisher Scientific, Waltham, MA, USA); this supplemented LB was designated LB*.
The dose-response assay for H. contortus followed a well-established protocol ([Taki et al., 2021b]); it was employed to evaluate the potency of hit compounds against this nematode. Test compounds were assessed individually for an effect on the motility of xL3s (10-point, 2-fold serial dilution in LB*, 40 μM–[…]). […] A solution of LB* was used as a negative control. The test compounds and positive control compounds (monepantel and moxidectin) were arrayed in triplicate across individual flat-bottom 96-well microplates, with six wells on each plate containing the negative control. Added to each well were 300 xL3s of H. contortus in 50 μL of LB* to give a final volume of 100 μL. Plates were then placed in a CO2 incubator (10 % (v/v) CO2, 38 °C, >90 % humidity; Forma, model no. 311, Thermo Fisher Scientific, USA). […] Over a period of 15 min, disturbance of an infrared beam in individual wells was recorded as an ‘activity count’. Raw ‘activity counts’ for individual wells were normalised to the negative-controls. The compound concentrations were log10-transformed and fitted using a variable slope four-parameter equation, using the ordinary least squares fit model, employing Prism (v.9.1.0 GraphPad Software, San Diego, CA, USA). Larval development was established at 168 h of incubation with compound, as described previously ([Preston et al., 2015]). The phenotypes of larvae were examined using a microscope ([Preston et al., 2015]) and recorded.

UBL-5 = molecular target: T1, UBL-5 (Caenorhabditis elegans, UniProt P91302); experiment: Thermal proteome profiling (TPP); type: binding; conditions: compound 50 μM, C. elegans lysate, 37-67 °C
T1 construct: from tissue; host or cells: whole-worm lysate of C. elegans N2 (young adults / L4s)
T1 sequence (P91302 whole entry): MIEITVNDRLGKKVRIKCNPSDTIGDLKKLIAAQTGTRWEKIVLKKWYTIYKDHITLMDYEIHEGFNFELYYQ

C. elegans young adults = experiment: C. elegans young adult motility dose-response assay; type: cell-based, Caenorhabditis elegans; conditions: Caenorhabditis elegans, 40 h, young adults; 40 h incubation; three independent assays in triplicate; read-out: Worm motility IC50 ± SD, C. elegans young adults
Experimental: The eggs were then washed five times with 15 mL of sterile M9 buffer (centrifugation at 500×g, 2 min). […] were collected from plates and washed twice with sterile M9 buffer by centrifugation (500×g, 2 min) to remove E. coli OP50, and then resuspended to a concentration of 100 larvae per 50 μL in sterile (autoclaved) LB*. The dose-response assay for C. elegans followed a well-established protocol ([Taki et al., 2021a]) and was employed to evaluate the potency of hit compounds against this nematode. […] Two compounds, monepantel (ZolvixTM; Elanco, Australia) and moxidectin ([…], France) were used as positive controls and prepared in the same manner as the test compounds. […] The test compounds and positive control compounds were arrayed in triplicate across individual flat-bottom 96-well microplates (cat. no. 3596; Corning, Corning, NY, USA), with six wells on each plate containing the negative control. Added to each well were 100 C. elegans in 50 μL of LB* to give a final volume of 100 μL. Plates were then placed in an incubator ([…], model no. IMP180, Thermo Fisher Scientific, USA) at 20 °C for 40 h. […] Over 15 min, disturbance of an infrared beam in individual wells was recorded as an 'activity count'. Raw 'activity counts' for each well were normalised to the negative controls. The compound concentrations were log10-transformed and fitted using a variable slope four-parameter equation, using the ordinary least squares fit model, employing the program Prism (v.9.1.0 GraphPad Software, San Diego, CA, USA).

PGP-1 = molecular target: T2, PGP-1 (Caenorhabditis elegans, UniProt P34712); experiment: Thermal proteome profiling (TPP); type: binding; conditions: compound 50 μM, C. elegans lysate, 37-67 °C
T2 construct: from tissue; host or cells: whole-worm lysate of C. elegans N2 (young adults / L4s), NP-40 extract
T2 sequence (P34712 whole entry): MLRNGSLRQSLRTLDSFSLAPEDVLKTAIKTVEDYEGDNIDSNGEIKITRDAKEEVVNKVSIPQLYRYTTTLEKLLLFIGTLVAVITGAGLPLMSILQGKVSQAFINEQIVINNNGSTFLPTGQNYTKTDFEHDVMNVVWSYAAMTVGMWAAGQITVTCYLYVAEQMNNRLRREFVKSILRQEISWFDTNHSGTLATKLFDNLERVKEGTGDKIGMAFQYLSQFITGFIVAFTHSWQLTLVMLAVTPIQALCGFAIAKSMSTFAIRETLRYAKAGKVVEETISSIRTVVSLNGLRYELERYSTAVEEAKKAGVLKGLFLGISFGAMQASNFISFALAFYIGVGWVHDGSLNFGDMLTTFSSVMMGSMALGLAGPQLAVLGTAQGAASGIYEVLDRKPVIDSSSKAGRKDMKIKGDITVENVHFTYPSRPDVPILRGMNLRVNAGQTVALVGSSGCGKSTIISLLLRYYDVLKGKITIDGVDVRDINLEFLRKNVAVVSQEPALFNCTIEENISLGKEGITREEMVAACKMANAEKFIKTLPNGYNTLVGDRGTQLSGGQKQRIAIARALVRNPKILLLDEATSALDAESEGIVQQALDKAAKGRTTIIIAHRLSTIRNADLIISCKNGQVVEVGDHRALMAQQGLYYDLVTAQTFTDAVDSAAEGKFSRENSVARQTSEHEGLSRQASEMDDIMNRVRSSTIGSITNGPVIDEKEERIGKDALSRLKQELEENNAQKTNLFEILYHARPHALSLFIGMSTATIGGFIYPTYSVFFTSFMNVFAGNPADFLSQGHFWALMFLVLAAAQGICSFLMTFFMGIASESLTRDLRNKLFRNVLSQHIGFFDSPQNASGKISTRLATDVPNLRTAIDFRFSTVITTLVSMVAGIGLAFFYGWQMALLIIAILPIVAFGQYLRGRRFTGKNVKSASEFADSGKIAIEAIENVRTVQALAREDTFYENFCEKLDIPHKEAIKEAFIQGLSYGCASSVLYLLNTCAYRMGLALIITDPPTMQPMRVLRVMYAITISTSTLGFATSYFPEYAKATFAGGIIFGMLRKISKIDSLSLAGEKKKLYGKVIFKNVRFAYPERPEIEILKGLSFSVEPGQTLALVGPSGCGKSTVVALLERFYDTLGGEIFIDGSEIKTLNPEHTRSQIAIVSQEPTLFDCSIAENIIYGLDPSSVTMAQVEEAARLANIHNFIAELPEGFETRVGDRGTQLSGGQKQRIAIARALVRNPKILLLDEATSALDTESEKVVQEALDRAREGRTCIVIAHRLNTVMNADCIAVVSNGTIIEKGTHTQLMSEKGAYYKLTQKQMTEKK

UNC-11 = molecular target: T3, UNC-11 (Caenorhabditis elegans, UniProt Q9XZI6); experiment: Thermal proteome profiling (TPP); type: binding; conditions: compound 50 μM, C. elegans lysate, 37-67 °C
T3 construct: from tissue; host or cells: whole-worm lysate of C. elegans N2 (young adults / L4s)
T3 sequence (Q9XZI6 whole entry): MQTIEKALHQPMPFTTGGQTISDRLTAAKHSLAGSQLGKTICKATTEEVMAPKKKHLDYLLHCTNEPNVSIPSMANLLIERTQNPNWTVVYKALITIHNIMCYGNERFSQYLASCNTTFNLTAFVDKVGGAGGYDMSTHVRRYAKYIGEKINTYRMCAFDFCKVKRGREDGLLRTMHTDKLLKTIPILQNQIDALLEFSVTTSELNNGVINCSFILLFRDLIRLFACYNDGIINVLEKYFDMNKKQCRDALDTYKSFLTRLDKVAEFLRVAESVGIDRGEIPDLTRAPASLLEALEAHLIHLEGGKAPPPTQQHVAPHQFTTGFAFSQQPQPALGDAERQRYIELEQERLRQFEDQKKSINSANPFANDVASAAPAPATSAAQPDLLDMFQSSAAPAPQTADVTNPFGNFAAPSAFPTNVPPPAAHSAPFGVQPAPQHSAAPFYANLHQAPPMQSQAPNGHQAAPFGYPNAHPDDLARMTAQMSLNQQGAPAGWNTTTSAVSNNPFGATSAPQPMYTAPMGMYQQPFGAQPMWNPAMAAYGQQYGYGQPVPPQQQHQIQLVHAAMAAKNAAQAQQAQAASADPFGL

## C(#Cc1ccc(-c2ccn[nH]2)cc1)c1ccccc1 [UMW-9729]
H. contortus xL3s; Haemonchus contortus, 90 h, xL3s, 90 h incubation (table title), three independent assays in triplicate, read-out: Worm motility IC50 ± SD, H. contortus xL3s
  IC50: 6.7 ± 0.4 µM
H. contortus xL3s; ratio of xL3 motility IC50 to moxidectin
  fold more active than moxidectin, H. contortus larvae: ~3 fold
UBL-5; NPARC
  F-statistic: 34.8
UBL-5
  thermal stability of protein in the presence of compound: stabilised
C. elegans young adults
  IC50: 14 ± 2.9 µM
PGP-1; NPARC
  F-statistic: 27.4
PGP-1
  thermal stability of protein in the presence of compound: stabilised
UNC-11; NPARC
  F-statistic: 23.0
UNC-11
  thermal stability of protein in the presence of compound: stabilised
